Converted amounts (≈) assume the structure as drawn. Where only a bound is given, the exact number is not on record here.

The text below walks through data of ChEMBL document CHEMBL4837205, “Design, synthesis and biological evaluations of a series of Pyrido[1,2-a]pyrimidinone derivatives as novel selective FGFR inhibitors” (Eur J Med Chem, 2021).

The data set is described as follows: physchem. The following applies: buffer, pH 7.4.

By solubility is commonly meant how much of the substance goes into solution per volume. As for `COc1cc(OC)cc(N(CCNC(C)C)c2ccc3ncc(-c4cnn(CCN(C)C)c4)c(=O)n3c2)c1`, the solubility was less than 10 µg/mL.
`COc1cc(OC)cc(N(CCNC(C)C)c2ccc3ncc(-c4cnn(C5CN(C(C)=O)C5)c4)c(=O)n3c2)c1` had a solubility of 59.1 µg/mL (≈ 108 µM).
